These results are taken from patent publication US11413278B2, “Compounds and methods for promoting stress resistance” (priority 2015, dated 2022).

One assay concerns the target T1, human PARP1 (Homo sapiens, UniProt P09874).
T1 construct: purchased Trevigen
The assay is described as follows: PARP inhibitor assay (HT Fluorescent Homogeneous PARP Inhibition Assay Kit). The assay is classed as biochemical. The following applies: 10 μM, in vitro. Here is the method:
(§1) The assay was performed with the HT Fluorescent Homogeneous PARP Inhibition Assay Kit (Trevigen), following manufacturer's instructions. Briefly, nicotinamide adenine dinucleotide, human PARP1 and activated-DNA solution was added onto a 96-well plate. 54 repurchased small molecules, at 10 μM final concentration, were introduced onto the 96-well assay plate and incubated in a humid chamber at room temperature for 30 min in dark. Cycling mixture, with resazurin and cycling enzyme diaphorase, was then added and incubated further for 1 hr in dark. Reaction was terminated by adding the stopping buffer.
as §1, with “(Trevegen),” for “(Trevigen),”, “stopped” for “terminated”

Assay [1] concerns WI-38 cells. Put plainly: CdCl2 (cadmium) resistance assay. Type of assay: cell-based, human. The following applies: YES/NO; for Assay 2: Cadmium-resistant: * indicates partial. Here is the method: (§2) For many stress conditions tested previously, one significant correlation to longevity is the cellular resistance to H2O2 or CdCl2. Applicants then tested these small molecules, at five different final concentrations (0.25 μM to 20 μM), for cadmium and MMS resistance in WI-38 cells.
(§3) The setups on 384-well plates and incubation times were the same as for H2O2 until the time of incubation with the stressors, which was 12 hours for both cadmium and MMS assays. Applicants tested several conditions, including conditions used to assay fibroblasts from long-lived animals (Salmon et al., 2005). These conditions produced better results with the positive controls (KEAP1 and AKT1 siRNAs) in the MMS assay. Thus, for MMS, the cells were shifted from growth media—OptiMEM+10% FBS, to DMEM (Gibco)+2% BSA (no serum) just before adding small molecules, which occurred 24 hours before MMS addition.
(§4) Isolated small molecules were tested for MMS and cadmium resistance twice in two independent assays. Each small molecule was analyzed at five different concentrations (0.25 μM to 20 μM final concentration), with technical triplicates for each dose. Data were analyzed using a global variance t-test.

The test system of assay [2] is HTB-178 lung tumor cells (EGFR+, PIK3CA+, RB1−, TP53−). Put plainly: Killing effects on HTB-178 tumor cells. Type of assay: cell-based, human. Conditions: Assay 1(y), at 10 uM.
In assay [3] the test system is human dermal fibroblast (HDF) primary cells. The assay is described as follows: H2O2-resistance in primary human dermal fibroblasts. Conditions: YES/NO. Type of assay: cell-based.
Assay [4] relates to WI-38 cells. Conditions: for Assay 1: H2O2-resistant: YES/NO, if NO, possibly due to repeated freezing/thawing of stocks; for EC50: read-out: Est. ED50, dose response 0.6-20 μM, H2O2-resistance.
The subject of another assay is C. elegans. Put plainly: C. elegans lifespan assays (liquid and plate). Type of assay: in vivo, Caenorhabditis elegans. The following applies: Caenorhabditis elegans, at 66 uM.
For assay [5], the system named is WI-38 cells. Put plainly: MMS resistance assay. The assay is classed as cell-based, human. Conditions: YES/NO; for Assay 3: MMS-resistant: * indicates partial; for Assay 5: Triple resistant: H2O2, cadmium and MMS. Here is the method:
as §2, §3, §4

The test system of assay [6] is NRF2. The assay is described as follows: in vitro. The assay is classed as cell-based, human. The following applies: 10 uM; YES/NO. Here is the method: For qPCR analysis, WI-38 cells were treated with small molecules (at 10 μM) (biological quadruplicates) for 24 hrs and processed for RNA isolation and reverse transcription (RT) with the Cells-to-Ct Kit (Life Technologies), following manufacturer's instructions. RT products were diluted with H2O and used for qPCR analysis on an ABI 7300 system (Life Technologies) (technical triplicates). Relative expression levels of target genes were normalized to the genes B2M, PPIA and GAPDH. To knock down the expression of FOXO3 or NRF2, WI-38 cells were transfected, using the RNAiMAX reagents (Life Technologies), with siRNA oligos (at 10 nM final concentration, 10 ml culture medium) for FOXO3 (Life Technologies) or NRF2 (Integrated DNA Technologies) on 10-cm petri dishes for 36 hrs, and then detached and aliquoted onto 96-well (for qPCR analysis) or 384-well plates (for H2O2-stress treatment). ˜24 hrs later, small molecules were introduced and incubated with cells for 24 hrs. Cells were then either processed with the Cells-to-Ct Kit to prepare RT products for qPCR analysis or subjected to H2O2 (700 μM) for 3 hrs and assayed for viability. The knockdown efficiency of FOXO3 or NRF2 was checked at 36 hrs post-transfection and at the end as well.
For qPCR analysis, WI-38 cells were treated with small molecules (at 10 μM) (biological quadruplicate) for 24 hrs and processed for RNA isolation and reverse transcription (RT) with the Cells-to-Ct Kit (Life Technologies), following manufacturer's instructions. RT products were diluted with H2O and used for qPCR analysis on a LightCycler 480 system (Roche) (technical triplicates). Relative expression levels of target genes were normalized to the genes B2M, PPIA and GAPDH. To knock down the expression of FOXO3 or NRF2, WI-38 cells were transfected with siRNA oligos (at 10 nM final concentration) for FOXO3 (Life Technologies) or NRF2 on 10-cm petri dish for 36 hrs, and then detached and aliquoted onto 96-well plates. ˜24 hrs later, small molecules were introduced and incubated with cells for 24 hrs. Cells were then processed with the Cells-to-Ct Kit to prepare RT products for qPCR analysis. The knockdown efficiency of FOXO3 or NRF2 was checked at 36 hrs post-transfection and at the end as well.
Of these, O15 and O20 consistently (in 3 of 3 experiments) required NRF2 to promote H2O2-resistance, and their resistance capacities were reduced by ˜90% on average upon NRF2 knockdown under conditions tested.

Assay [7] deals with NRF2. The assay is described as follows: qPCR analysis of NRF2-regulated genes. Type of assay: cell-based, human. The following applies: Homo sapiens, 24 h, Assay 12(o), at 10 uM, qPCR. Summed up:
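Expression of HMOX1, NQO1, GCLC and GSTM1 measured by qPCR relative to B2M, PPIA and GAPDH. Cells were WI-38 fibroblasts exposed 24 hrs to 10 μM compound, with RNA and cDNA prepared via Cells-to-Ct. Where stated, cells were first transfected 36 hrs with FOXO3 or NRF2 siRNA at 10 nM.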

In another assay the test system is FOXO3. Put plainly: qPCR analysis of FOXO3-regulated genes. Conditions: Homo sapiens, 24 h, Assay 10(m), at 10 uM, qPCR. Type of assay: cell-based, human. Summed up:
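FOXO3 target-gene expression quantified by qPCR normalised to B2M, PPIA and GAPDH, in WI-38 cells after 24 h exposure to 10 μM compound. Some runs used cells first transfected 36 h with 10 nM FOXO3 or NRF2 siRNA and replated ~24 h before dosing.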
In general terms: Real-time PCR tracks product formation cycle by cycle.

Setting [8] is: Assay 2(z), 1.0 × 10^9 bacteria/ml, wild type + FuDR (2012 July), read-out: Lifespan assay in liquid.
Where [9] appears, read: Assay 3(aa), 2.5 × 10^9 bacteria/ml, wild type + FuDR, read-out: Lifespan assay in liquid.
The mark [10] stands for this setting: Assay 4(ab), 2.0 × 10^10 bacteria/ml, CF512 worms, no FuDR, read-out: Lifespan assay on plates.
Where [11] appears, read: read-out: Induction of FOXO3-regulated genes: SOD2 normalized fold-change.

The structures appear in SMILES notation. “Also recorded” adds a separate entry of the source. Like-named read-outs stand apart in the source and are kept apart here.

T1 sequence (P09874 whole entry): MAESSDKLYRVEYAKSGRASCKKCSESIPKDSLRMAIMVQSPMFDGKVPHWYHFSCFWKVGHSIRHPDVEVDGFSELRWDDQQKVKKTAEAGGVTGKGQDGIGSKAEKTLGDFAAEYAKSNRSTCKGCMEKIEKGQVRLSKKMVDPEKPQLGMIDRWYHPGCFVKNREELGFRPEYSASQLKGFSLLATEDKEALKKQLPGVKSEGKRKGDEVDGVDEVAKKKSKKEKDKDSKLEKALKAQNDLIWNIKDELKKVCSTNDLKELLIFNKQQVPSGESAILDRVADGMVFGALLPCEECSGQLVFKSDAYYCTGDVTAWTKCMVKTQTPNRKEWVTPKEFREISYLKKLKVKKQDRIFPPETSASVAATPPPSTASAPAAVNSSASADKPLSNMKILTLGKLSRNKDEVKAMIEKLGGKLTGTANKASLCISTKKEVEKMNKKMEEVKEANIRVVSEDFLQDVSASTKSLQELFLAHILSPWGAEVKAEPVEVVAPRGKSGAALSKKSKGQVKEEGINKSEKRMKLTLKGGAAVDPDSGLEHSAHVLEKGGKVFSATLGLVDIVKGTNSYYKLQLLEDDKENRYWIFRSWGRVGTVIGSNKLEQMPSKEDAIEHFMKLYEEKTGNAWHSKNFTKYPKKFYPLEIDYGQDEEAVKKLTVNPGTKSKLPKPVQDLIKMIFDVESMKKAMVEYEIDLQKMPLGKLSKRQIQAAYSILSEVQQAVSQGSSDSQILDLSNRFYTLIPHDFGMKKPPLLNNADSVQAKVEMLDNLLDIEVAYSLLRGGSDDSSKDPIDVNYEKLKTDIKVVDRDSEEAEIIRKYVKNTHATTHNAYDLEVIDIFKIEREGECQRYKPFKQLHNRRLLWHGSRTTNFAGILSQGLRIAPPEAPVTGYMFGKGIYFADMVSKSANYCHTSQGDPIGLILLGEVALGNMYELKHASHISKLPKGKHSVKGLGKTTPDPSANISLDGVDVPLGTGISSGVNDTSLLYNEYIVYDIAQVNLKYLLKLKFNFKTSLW

For the compound `Oc1nnc(Cc2ccncc2)c2ccccc12` [Gr-2B], at human PARP1, the “Inhibition of PARP1” value was “inhibitors of PARP1; also recorded: PARP inhibitors”. Also, in the assay with WI-38 cells [1], the “Assay 4: H2O2- & Cd-resistant” value is listed as “YES” and the “Assay 2: Cadmium-resistant” value is given as “YES”. Besides, the “Potential killing effects on HTB-178 tumor cells, 1st” value (from here on “Potential killing effects … 1st”) in assay [2] is listed as “YES;”. Also, the “Assay 6: H2O2-resistant, at 10 uM, human dermal fibroblast (HDF) primary cells” value (from here on “Assay 6: H2O2-resistant, at 10 uM”) in assay [3] is “YES”. Besides, in the assay on WI-38 cells [4], the “Assay 1: H2O2-resistant” value is on record as “YES” and the EC50 was determined as 3.05 µM. The ILS at 66 µM in the assay on C. elegans (setting [8]) was determined as 2.5%. Moreover, the ILS at 66 µM with C. elegans (setting [9]) was -1.1%. Moreover, in the assay on C. elegans (setting [10]), the ILS at 66 µM is 14.1%. In addition, in the assay with WI-38 cells [5], the “Assay 3: MMS-resistant” value is “YES” and the “Assay 5: Triple resistant” value is “YES”.

`CC(COc1ccc2c(c1)OCO2)NC(=O)Cc1nnc(O)c2ccccc12` (stereo not drawn) [Gr-2E]: the “Inhibition of PARP1” value at human PARP1 is on record as “PARP inhibitors”. Further, in the assay on WI-38 cells [1], the “Assay 4: H2O2- & Cd-resistant” value is “YES” and the “Assay 2: Cadmium-resistant” value is given as “YES”. For the same compound, the “Potential killing effects … 1st” value in assay [2] is listed as “YES;”. In addition, the “Assay 6: H2O2-resistant, at 10 uM” value in assay [3] was “YES”. Further, in the assay on WI-38 cells [4], the “Assay 1: H2O2-resistant” value is on record as “YES” and the EC50 was determined as 3.82 µM. In addition, the ILS at 66 µM in the assay with C. elegans (setting [8]) was 3.3%. The ILS at 66 µM in the assay on C. elegans (setting [9]) was 4%. Further, the ILS at 66 µM with C. elegans (setting [10]) turned out to be 9.7%. Besides, in the assay with NRF2 [6], the “Assay 17: NRF2-dependency for H2O2-resistance” value was “YES”.

On to `O=C(CCCc1nnc2n3nc(-c4ccccc4)nc3c3ccccc3n12)N1CCOCC1` [O8], for which the fold induction at 10 µM in the assay with NRF2 [7] (read-out: Induction of NRF2-regulated genes: GSTM1 normalized fold-change) was found to be 0.82; in the assay with FOXO3 (setting [11]) it was 1.07. For the same compound, in assay [2], the “Potential killing effects … 1st” value is reported as “YES;”. Further, the “Assay 6: H2O2-resistant, at 10 uM” value in assay [3] is reported as “YES”. In addition, the EC50 in the assay with WI-38 cells [4] was 20 µM. Also, the ILS at 66 µM was 6.6% in the assay on C. elegans (setting [8]), 3.8% in the assay on C. elegans (setting [9]) and 10% with C. elegans (setting [10]).

`COc1cc(-c2nc(C(N)=O)c3nc(O)n(-c4cccc(C)c4)c3n2)cc(Br)c1O` [O9]: the fold induction at 10 µM is 1.97 in the assay on NRF2 [7] (read-out: Induction of NRF2-regulated genes: HMOX1 normalized fold-change); 1.32 with NRF2 [7] (read-out: Induction of NRF2-regulated genes: NQO1 normalized fold-change); 1.19 with FOXO3 (read-out: Induction of FOXO3-regulated genes: SESN1 normalized fold-change); 1.15 in the assay with FOXO3 (setting [11]); 1.72 with FOXO3 (read-out: Induction of FOXO3-regulated genes: TXNIP normalized fold-change). Further, the “Assay 4: H2O2- & Cd-resistant” value in the assay with WI-38 cells [1] is on record as “YES”. Besides, in the assay with WI-38 cells [1], the “Assay 2: Cadmium-resistant” value is listed as “YES”. Also, the “Potential killing effects … 1st” value in assay [2] is “YES;”. Besides, the “Potential killing effects on HTB-178 tumor cells, 2nd” value in assay [2] is “YES”. Further, in the assay with WI-38 cells [4], the “Assay 1: H2O2-resistant” value was “YES”. Also, in the assay on WI-38 cells [4], the EC50 was 14.2 µM. For the same compound, the ILS at 66 µM was 6.6% in the assay with C. elegans (setting [8]), 1.3% in the assay with C. elegans (setting [9]) and -0.3% in the assay with C. elegans (setting [10]). For the same compound, the “Assay 3: MMS-resistant” value in the assay on WI-38 cells [5] is “YES”. In addition, in the assay with WI-38 cells [5], the “Assay 5: Triple resistant” value was “YES”.

Turning to `CC(Nc1cc(C)ccn1)=C(C#N)C#N` [O16], the “Potential killing effects … 1st” value in assay [2] was “YES;”. In assay [2], the “Potential killing effects on HTB-178 tumor cells, 2nd” value is recorded as “YES”. The “Assay 6: H2O2-resistant, at 10 uM” value in [3] is “YES”. In addition, in the assay on WI-38 cells [4], the EC50 came to 20 µM. The ILS at 66 µM with C. elegans (setting [8]) amounted to 16.8%; with C. elegans (setting [9]), 11.4%; in the assay with C. elegans (setting [10]), 19.7%; in the assay on C. elegans (Assay 5(ac), 1.0 × 10^11 bacteria/ml, CF512 worms, no FuDR, read-out: Lifespan assay on plates), 9.8%; in the assay on C. elegans (Assay 6(ad), 2.0 × 10^10 bacteria/ml, CF512 worms, no FuDR, read-out: Lifespan assay on plates), 9.9%; with C. elegans (Assay 7(ae), 1.0 × 10^11 bacteria/ml, CF512 worms, no FuDR, read-out: Lifespan assay on plates), 12.1%.
